Laboratory results as given in patent US20230183237A1, “COMPETITIVE AND NONCOMPETITIVE INHIBITORS OF THE MUSCARINIC ACETYLCHOLINE RECEPTOR M5” (Vanderbilt University, priority 2020, published 2023).
Where two headings read alike, the source gives them in different places.

Target: T1, hM5 (Homo sapiens, UniProt P08912)
T1 construct: expressed in transfected cells
T1 sequence (P08912 1-532): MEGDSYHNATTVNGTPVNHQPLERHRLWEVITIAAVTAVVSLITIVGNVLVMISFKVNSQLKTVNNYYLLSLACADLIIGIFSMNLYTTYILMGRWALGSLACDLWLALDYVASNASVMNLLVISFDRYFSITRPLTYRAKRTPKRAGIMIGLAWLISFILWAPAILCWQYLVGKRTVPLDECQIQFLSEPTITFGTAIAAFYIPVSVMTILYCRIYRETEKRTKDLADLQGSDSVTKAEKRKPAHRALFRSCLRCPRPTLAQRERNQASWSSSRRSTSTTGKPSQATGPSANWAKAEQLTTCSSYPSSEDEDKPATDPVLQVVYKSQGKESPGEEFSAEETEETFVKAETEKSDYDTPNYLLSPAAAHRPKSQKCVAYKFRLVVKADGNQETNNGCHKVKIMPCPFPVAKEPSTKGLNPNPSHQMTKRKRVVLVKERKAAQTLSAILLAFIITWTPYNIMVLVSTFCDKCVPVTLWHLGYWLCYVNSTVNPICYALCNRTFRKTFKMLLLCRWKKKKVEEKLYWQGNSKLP
Assay: Calcium mobilization concentration-response (IC50 vs EC80 acetylcholine), CHO hM5
Format: cell-based
Details: CELL LINE hM5, read-out: IC50
In short: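 CHO cells stably expressing hM5, dye-loaded, in HBSS/20 mM HEPES/2.5 mM probenecid, pH 7.4. Compounds were pre-incubated 140 s before an EC80 acetylcholine challenge, with calcium flux read kinetically.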

[1] = calcium mobilization, EC80 acetylcholine addition

Compound	IC50 [1]	IC50 (vs EC80 acetylcholine)
Cc1cc2nccn2nc1N1CCN(S(=O)(=O)c2ccc3c(c2)CCO3)CC1 [Compound 36, 6-(4-((2,3-Dihydrobenzofuran-5-yl)sulfonyl)piperazin-1-yl)-7-methylimidazo[1,2-b]pyridazine]	4000 nM	
Cc1cc2nccn2nc1C1CCN(S(=O)(=O)c2cc3c(cc2F)OCC3)CC1 [Compound 52, 6-(1-((6-fluoro-2,3-dihydrobenzofuran-5-yl)sulfonyl)piperidin-4-yl)-7-methylimidazo[1,2-b]pyridazine]	5500 nM	
Cc1cc2ncnn2cc1C1CCN(S(=O)(=O)c2cnn(C(F)F)c2C)CC1 [Compound 151, 6-(1-((1-(difluoromethyl)-5-methyl-1H-pyrazol-4-yl)sulfonyl)piperidin-4-yl)-7-methyl-[1,2,4]triazolo[1,5-a]pyridine]	62 nM	
Cc1cc2ncnn2cc1C1CCN(S(=O)(=O)c2cn(C(F)F)nc2C)CC1 [Compound 144, 6-(1-((1-(difluoromethyl)-3-methyl-1H-pyrazol-4-yl)sulfonyl)piperidin-4-yl)-7-methyl-[1,2,4]triazolo[1,5-a]pyridine]	1200 nM	
O=S(=O)(c1ccc2ncccc2c1)N1CCC(c2cc3[nH]ccc3cn2)CC1 [Compound 31, 6-((4-(1H-pyrrolo[3,2-c]pyridin-6-yl)piperidin-1-yl)sulfonyl)quinoline]	> 10000 nM	
Cc1cc2ncnn2nc1C1CCN(S(=O)(=O)c2cnn3c2CCC3)CC1 [Compound 187, 6-(1-((5,6-dihydro-4H-pyrrolo[1,2-b]pyrazol-3-yl)sulfonyl)piperidin-4-yl)-7-methyl-[1,2,4]triazolo[1,5-b]pyridazine]	23 nM	
O=S(=O)(c1ccc2c(c1)CCO2)N1CCC(c2nc3ccccc3[nH]2)CC1 [Compound 3, 2-(1-((2,3-dihydrobenzofuran-5-yl)sulfonyl)piperidin-4-yl)-1H-benzo[d]imidazole]	> 10000 nM	
O=S(=O)(c1cnn2c1CCC2)N1CCC(c2cn3ncnc3cc2Cl)CC1 [Compound 293, 7-chloro-6-(1-((5,6-dihydro-4H-pyrrolo[1,2-b]pyrazol-3-yl)sulfonyl)piperidin-4-yl)-[1,2,4]triazolo[1,5-a]pyridine]	12 nM	
CCn1ncc(S(=O)(=O)N2CCC(c3cn4ncnc4cc3C)CC2)c1C1CC1 [Compound 133, 6-(1-((5-cyclopropyl-1-ethyl-1H-pyrazol-4-yl)sulfonyl)piperidin-4-yl)-7-methyl-[1,2,4]triazolo[1,5-a]pyridine]	> 10000 nM	
Cc1ncc(S(=O)(=O)N2CC=C(c3cn4ncnc4cc3Cl)CC2)n1C [Compound 224, 7-chloro-6-(1-((1,2-dimethyl-1H-imidazol-5-yl)sulfonyl)-1,2,3,6-tetrahydropyridin-4-yl)-[1,2,4]triazolo[1,5-a]pyridine]	12 nM	
O=S(=O)(c1cnc2n1CCCC2)N1CCC(c2cn3ncnc3cc2Cl)CC1 [Compound 343]	12 nM	
Cc1cc2ncnn2cc1C1CCN(S(=O)(=O)c2ccc3ncn(C)c3c2)CC1 [Compound 188, 7-methyl-6-(1-((1-methyl-1H-benzo[d]imidazol-6-yl)sulfonyl)piperidin-4-yl)-[1,2,4]triazolo[1,5-a]pyridine]	105 nM	
O=S(=O)(c1ccc2ncsc2c1)N1CCC(c2cc3cc[nH]c3nn2)CC1 [Compound 22, 6-((4-(7H-pyrrolo[2,3-c]pyridazin-3-yl)piperidin-1-yl)sulfonyl)benzo[d]thiazole]	2600 nM	
Cc1cc2ncnn2nc1C1CCN(S(=O)(=O)c2ccc3c(c2)CCO3)CC1 [Compound 164, 6-(1-((2,3-dihydrobenzofuran-5-yl)sulfonyl)piperidin-4-yl)-7-methyl-[1,2,4]triazolo[1,5-b]pyridazine]	5900 nM	
Cc1c(S(=O)(=O)N2CCC(c3ccc4ncnn4c3C)CC2)cnn1C [Compound 198, 6-(1-((1,5-dimethyl-1H-pyrazol-4-yl)sulfonyl)piperidin-4-yl)-5-methyl-[1,2,4]triazolo[1,5-a]pyridine]	> 10000 nM	
O=S(=O)(c1ccc2c(c1)CCO2)N1CCC(c2nc3cc(F)ccc3[nH]2)CC1 [Compound 5, 2-(1-((2,3-dihydrobenzofuran-5-yl)sulfonyl)piperidin-4-yl)-5-fluoro-in-benzo[d]imidazole]	> 10000 nM	
Cc1cc2nccn2nc1C1CCN(S(=O)(=O)c2ccc3c(c2)CCCO3)CC1 [Compound 43, 6-(1-(chroman-6-ylsulfonyl)piperidin-4-yl)-7-methylimidazo[1,2-b]pyridazine]	3600 nM	
Cc1c(S(=O)(=O)N2CCC(c3cn4ncnc4cc3-c3ccn(C)n3)CC2)cnn1C [Compound 332, 6-(1-((1,5-dimethyl-1H-pyrazol-4-yl)sulfonyl)piperidin-4-yl)-7-(1-methyl-1H-pyrazol-3-yl)-[1,2,4]triazolo[1,5-a]pyridine]	> 10000 nM	
C=Cc1cc2ncnn2cc1C1=CCN(S(=O)(=O)c2cnn(C)c2C)CC1 [Compound 147, 6-(1-((1,5-dimethyl-1H-pyrazol-4-yl)sulfonyl)-1,2,3,6-tetrahydropyridin-4-yl)-7-vinyl-[1,2,4]triazolo[1,5-a]pyridine]	51 nM	

The remaining lines, values ahead:

IC50 [1]	IC50 (vs EC80 acetylcholine)	Compound
	12 nM	COc1c(S(=O)(=O)N2CCC(c3cn4ncnc4cc3C)CC2)cnn1C [Compound 573, 6-(1-((5-methoxy-1-methyl-1H-pyrazol-4-yl)sulfonyl)piperidin-4-yl)-7-methyl-[1,2,4]triazoto[1,5-a]pyridine]
	97 nM	[2H]c1nc2cc(Cl)c(C3=CCN(S(=O)(=O)c4cnc(C)s4)CC3)cn2n1 [Compound 611, 5-((4-(7-chloro-[1,2,4]triazolo[1,5-a]pyridin-6-yl-2-d)-3,6-dihydropyridin-1(2H)-yl)sulfonyl)-2-methylthiazole]
	162 nM	Cc1c(C2CCN(S(=O)(=O)c3cnn(C)c3CC#N)CC2)cn2ncnc2c1F [Compound 439, 2-(4-((4-(8-fluoro-7-methyl-[1,2,4]triazolo[1,5-a]pyridin-6-yl)piperidin-1-yl)sulfonyl)-1-methyl-1H-pyrazol-5-yl)acetonitrile]
	77 nM	CCc1cc2ncnn2cc1C1CCN(S(=O)(=O)c2cnn(C)c2OC)CC1 [Compound 584, 7-ethyl-6-(1-((5-methoxy-1-methyl-1H-pyrazol-4-yl)sulfonyl)piperidin-4-yl)-[1,2,4]triazolo[1,5-a]pyridine]
	> 10000 nM	COC1(c2cn3ncnc3cc2C)CCN(S(=O)(=O)c2cnn3c2OCCC3)CC1 [Compound 416, 3-((4-methoxy-4-(7-methyl-[1,2,4]triazolo[1,5-a]pyridin-6-yl)piperidin-1-yl)sulfonyl)-6,7-dihydro-5H-pyrazolo[5,1-b][1,3]oxazine]
	58 nM	[2H]C1([2H])CC(c2cn3ncnc3c(F)c2C)CC([2H])([2H])N1S(=O)(=O)c1cc(C)ns1 [Compound 527, 5-((4-(8-fluoro-7-methyl-[1,2,4]triazolo[1,5-a]pyridin-6-yl)piperidin-1-yl-2,2,6,6-d4)sulfonyl)-3-methylisothiazole]
	831 nM	Cc1ncc(S(=O)(=O)N2CCC(c3cn4ccnc4cc3C)CC2)o1 [Compound 582, 2-methyl-5-((4-(7-methylimidazo[1,2-a]pyridin-6-yl)piperidin-1-yl)sulfonyl)oxazole]
	619 nM	Cc1cc2ncccc2cc1C1CCN(S(=O)(=O)c2c(Cl)nc3sccn23)CC1 [Compound 451, 6-chloro-5-((4-(7-methylquinolin-6-yl)piperidin-1-yl)sulfonyl)imidazo[2,1-b]thiazole]
113 nM		O=S(=O)(c1cnn2c1OCCC2)N1CCC(c2ccc3ncnn3c2)CC1 [Compound 387, 3-((4-([1,2,4]triazolo[1,5-a]pyridin-6-yl)piperidin-1-yl)sulfonyl)-6,7-dihydro-5H-pyrazolo[5,1-b][1,3]oxazine]
	55 nM	Cc1cc2nccnc2cc1C1CCN(S(=O)(=O)c2cnn(C)c2Cl)CC1 [Compound 424, 6-(1-((5-chloro-1-methyl-1H-pyrazol-4-yl)sulfonyl)piperidin-4-yl)-7-methylquinoxaline]
	> 10000 nM	Cc1ncc(S(=O)(=O)N2CCC(c3cnc(C(F)(F)F)cc3C)CC2)s1 [Compound 397, 2-methyl-5-((4-(4-methyl-6-(trifluoromethyl)pyridin-3-yl)piperidin-1-yl)sulfonyl)thiazole]
	1630 nM	Cc1cc2ncnn2cc1C1=C(C#N)CN(S(=O)(=O)c2cnn(C)c2C)CC1 [Compound 468, 1-((1,5-dimethyl-1H-pyrazol-4-yl)sulfonyl)-4-(7-methyl-[1,2,4]triazolo[1,5-a]pyridin-6-yl)-1,2,5,6-tetrahydropyridine-3-carbonitrile]
	> 10000 nM	Cc1ncc(S(=O)(=O)N2CCC(c3c4c(nn3C)CCCC4)CC2)s1 [Compound 593, 2-methyl-5-((4-(2-methyl-4,5,6,7-tetrahydro-2H-indazol-3-yl)piperidin-1-yl)sulfonyl)thiazole]
13 nM		Cc1c(S(=O)(=O)N2CC=C(c3cn4ncnc4c(F)c3Cl)CC2)cnn1C [Compound 381, 7-chloro-6-(1-((1,5-dimethyl-1H-pyrazol-4-yl)sulfonyl)-1,2,3,6-tetrahydropyridin-4-yl)-8-fluoro-[1,2,4]triazolo[1,5-a]pyridine]
